This passage reports melting point results from a melting point compilation (Tetko et al.; mined from patent text by program, amines drawn as free bases though some values may be those of a salt).

Consider `COCOc1cc([N+](=O)[O-])c(F)cc1Cl`, for which the melting point (in general, the temperature, or range, at which the solid turns liquid) lay in the range of 78 to 80 °C.

In turn, `CCOC(=O)Cn1cnc2ccccc21` displayed a melting point of 63 to 64 °C.

Molecule `Nc1nc(O)c2c(n1)NCC(CCc1ccc(C(=O)N[C@@H](CCC(=O)O)C(=O)O)cc1)C2` (stereo not given in full) registered a melting point of over 250 °C. The same measure for `COC(=O)C1=C(C=O)NC(C)=C(P2(=O)OCCCO2)C1c1ccccc1[N+](=O)[O-]` (stereo not given): 135 to 136 °C. The same measure for `Cc1ccc(-c2nc(Cl)cc(-c3ccccc3)n2)cc1`: 86 to 87 °C; for `CCOC(=O)CCc1ccc2c(c1)c(-c1cc3cccnc3n1S(=O)(=O)c1ccc(C)cc1)cn2C`: 280 to 282 °C. For the molecule `Cc1cc2c(cc1C)-n1c(C)nnc1C=C(c1ccc(-n3c(C)nc4cnccc43)cc1)N2`, the melting point lay within 294 to 296 °C.

`COc1ccc(Cc2cc(C(C)(C)C)c(O)c(C(C)(C)C)c2)cc1` came in with a melting point of 139 °C.

`COC(=O)c1ccc(CN2C(=O)C(CCO)Oc3ccccc32)cc1` (stereo not given) came in with a melting point of 94 to 95 °C. Turning to `CC(C)CC(SCc1ccccc1)c1c(O)cc(-c2ccccc2)oc1=O` (stereo not given), the melting point was in the range of 153 to 155 °C. For `C=CCNC(=O)CCCC(=O)O`, the melting point is 35.1 °C.

In turn, `CCCCCCCCCCCCc1nnn(CC(=O)OCC)n1` registered a melting point of 38 to 40 °C. In the case of `CC1(C)CCC(C)(C)c2cc(C(=O)c3ccccc3C(=O)N(CCO)CCO)ccc21` it was 116 °C; in that of `O=c1cc(-c2ccccc2)oc2c(C=S)cccc12`, 153 to 157 °C. The same measure for `CCC=C1SC(=S)N(CC(=O)O)C1=O`: 138 to 140 °C. The same measure for `CC(C)C1c2ccc(F)cc2CCC1(O)CCO` (stereo not given): 78 to 80 °C; for `CC(=O)Nc1ncc2cc(-c3c(Cl)cccc3Cl)c(=O)n(C)c2n1`: 258 to 260 °C. The molecule `COc1cccc(-c2nc3n(n2)Cc2cc(OC)c(OC)cc2-3)c1` returned a melting point of 186 to 187 °C. In the case of `CCOP(=O)(OCC)c1nc(N(CC)CC)nc(N(CC)CC)n1` it was 45 to 46 °C. The same measure for `CC(C)c1cccc(C(C)C)c1NC(=O)Nc1ccc(-c2ccccc2)nc1-c1ccccc1`: 206 to 208 °C; for `Clc1cnc2c(-c3ccccc3)nc(Cl)nc2c1`: 140 to 141 °C; for `CC(C)(C)OC(=O)C(=NOC(C)(C)C(=O)OCC[Si](C)(C)C)c1csc(N)n1`: 83 °C. In the case of `CCCN(C(=O)CBr)c1ccc([N+](=O)[O-])cc1C(=O)c1ccccc1` it was 122 °C; in that of `COc1cc(OC)cc(-c2ncoc2-c2ccc(OC(F)(F)F)c(O)c2)c1`, 192 to 194 °C; in that of `CN(C)CC1CCCCN1CCCNC(=O)N1c2ccccc2C(=O)Nc2cccnc21` (stereo not given), 160 to 162 °C.

Regarding `CCN1CC(NC(=O)c2ccc(OCC=C(C)CCC=C(C)C)cc2)CN1CC`, the melting point was 95.5 to 97 °C. In the case of `C#CCOc1nc(N)c(C(F)(F)F)cc1Cl` it was 56 to 58 °C.

In turn, `NCCOc1ccc2[nH]c3ccccc3c2c1` had a melting point of 145 to 146 °C. As for `CC(C)(C)c1ccc(CCC(O)CC2CCCC2)cc1NC(=O)CC1c2ccccc2Oc2ccccc21` (stereo not given), the melting point lay in the range of 142 to 143 °C. In the case of `COc1ccc2c(c1)C(=O)C1=NCCCN12`, the melting point is 152 °C.

Turning to `CC(C)OC1=NC(=O)N(C(C)C)S(=O)(=O)N1`, the melting point is 164 to 167 °C.

In turn, `CCCCc1sc(C(N)=O)c2c1-c1nn(C)cc1CC2` yielded a melting point of 227 to 228 °C.

On to `CS(=O)(=O)c1ccc(-c2cc(C(F)(F)F)nn2-c2ccc(C#N)cc2)cc1F`, for which the melting point fell in the range of 152 to 153 °C. `O=C1N=C2C=CC=CN2C1(Cc1ccccc1)Cc1ccc(F)cc1` (stereo not given) had a melting point of over 300 °C. For the molecule `COc1ccc(CN(C)CCCCc2ccc(NC(=O)c3cccc4c(=O)c5ccccc5sc34)cc2)cc1OC`, the melting point is 156 °C. In turn, `COc1cc2c(cc1O)C(=O)CCCC2` yielded a melting point of 115 to 116 °C. As to `CC(N1CCN(c2ncnn2Cc2ccc(C(C)(C)C)cc2)CC1)C(O)(Cn1cncn1)c1ccc(F)cc1F` (stereo not given), the melting point lay within 73 to 75 °C.

`CC1(C)CCC(C)(C)c2cc(CCc3ncccn3)c(C=O)cc21` came in with a melting point of 78 to 84.5 °C. The same measure for `CCOC(=O)c1csc(/C=C/C(=O)c2ccc3c(c2)C2(C)C4(C)CCC(C4)C2(C)O3)c1` (stereo not given): 149 to 151 °C. As to `CCCC(=O)c1cccc(NC(=O)C=C(C)Cl)c1`, the melting point amounted to 106 °C. In the case of `COc1ccc(C2=CCOCC2)cc1[N+](=O)[O-]` it was 117 to 120 °C; in that of `O=CN1CC2Oc3ccccc3OC2C1` (stereo not given), 207 to 208 °C; in that of `COc1ccc2c(c1)C(=O)c1c-2c(N2CCN(C(=O)CCCl)CC2)nc2ccccc12`, 162 to 163 °C. Consider `CC(=O)OC1CCC(n2cnc3cc(Cl)c(Cl)cc32)C1OC(C)=O` (stereo not given), for which the melting point fell in the range of 95 to 97 °C.

With `CCOC(=O)c1cc2c(C)c(F)ccc2[nH]1`, the melting point fell in the range of 148 to 149 °C. For `CC(C)N1CC(=O)N(c2ccc(O)cc2F)C1=O`, the melting point was in the range of 190 to 192 °C. On to `N=C(N)c1ccc(N2CCN(C3CCC(CCC(=O)O)CC3)C2=O)cc1` (stereo not given), for which the melting point is over 200 °C.

In turn, `Oc1ccc(C=C2c3ccccc3CCc3ccccc32)cc1O` showed a melting point of 138 °C.

`O=C(OCC(=O)c1ccc(C(F)(F)F)cc1)Oc1ccccc1` registered a melting point of 134 to 135 °C. Molecule `CCCCc1ccc(N2CCN(C(=O)Nc3nc4ccccc4nc3OC)CC2)cc1` had a melting point of 124 to 126 °C. In the case of `CC(=O)N1CCCc2ccc(S(=O)(=O)C[N+](=O)[O-])cc21` it was 155 °C; in that of `CC1Oc2c(cc(CN3CCN(c4ccc(C(=O)NC5CC5)cc4)CC3)cc2C2CC2)NC1=O` (stereo not given), 202 to 207 °C. In turn, `O=C(O)COc1cccc2c1Cc1sc(S(=O)(=O)CCCC(c3ccccc3)c3ccccc3)nc1-2` had a melting point of 97 to 101 °C. For the molecule `Clc1ccc(OC(c2cccnc2)n2cncn2)c(Cl)c1` (stereo not given), the melting point is 75.5 to 78 °C. On to `COc1ccc(C(=O)c2ccc(Cl)nc2)c(OCc2ccccc2)c1`, for which the melting point fell in the range of 93 to 94 °C. In turn, `CC1(C(=O)N2CCOCC2)COC(c2nc(-c3ccc(F)cc3)c(-c3ccnc(S(C)(=O)=O)n3)[nH]2)OC1` (stereo not given) returned a melting point of 264 to 266 °C. In the case of `CC(C)(CO)NC(=O)c1cccc(-c2cccc3cc(Cc4cc(F)cc(Cl)c4)sc23)c1` it was 149 to 150 °C; in that of `COC(=O)/C(O)=C1\CCc2cc(OC)ccc2C1=O`, 77.3 to 77.8 °C. In the case of `CC(=O)NCC(C)(C)c1ccc2nc(-c3ccc(C)cc3)[nH]c2c1` it was 230 to 232 °C. In the case of `COC(=O)c1[nH]cc(Cc2ccsc2)c1N` it was 108 to 110 °C; in that of `CCCCC1=NC(Cl)(COC)CN1Cc1ccc(C(=O)O)cc1` (stereo not given), 126 to 128 °C; in that of `COc1cccc2cc(C(=O)O)c(C(=O)O)cc12`, 210 to 212 °C. Consider `O=S(=O)(/C=C/c1ccc(F)cc1)CS(=O)(=O)/C=C/c1ccc(F)cc1`, for which the melting point was 183 to 185 °C. `CCOC(=O)N(C)CC1CN(c2c(F)cc(C(=O)O)c(F)c2F)CCO1` (stereo not given) returned a melting point of 170 to 172 °C. On to `OC(c1ccc2c(c1)CCN2Cc1ccccc1)(C(F)(F)F)C(F)(F)F`, for which the melting point was in the range of 85 to 90 °C. The same measure for `CC1(C)OC(C=Cc2ccncc2)=CC1=O`: 94 to 96 °C; for `CC(C)n1nc(-c2sc(NC(=O)n3c4ccccc4c4ccccc43)nc2-c2ccccc2)ccc1=O`: 241 to 242 °C. In the case of `O=C(O)c1cn2c(n1)COc1ccc(Cl)cc1-2` it was 276 to 278 °C; in that of `CC(C)Cn1c(CNC(=O)OC(C)(C)C)c(-c2ccccc2)c2cc(O)ccc2c1=O`, 218 to 219 °C. In the case of `FC(F)(F)c1cc(C2CN(Cc3ccccc3)CO2)c2cccc(C(F)(F)F)c2n1` (stereo not given) it was 108 to 109 °C. Consider `Cc1ccc(NC(=O)c2cccc(CN3C(=O)C4(COc5cc6c(cc54)CCO6)c4ccccc43)c2)c(C)c1` (stereo not given), for which the melting point fell in the range of 234 to 235 °C. The same measure for `O=C(c1cc(Br)c(OCP(=O)(O)O)c(Br)c1)c1c(Cc2ccccc2)sc2ccccc12`: 210 to 212 °C; for `Clc1nc(SCc2ccccc2)nc2nc[nH]c12`: 176 to 178 °C.

For the molecule `CCOC(=O)c1oc2c([N+](=O)[O-])c(O)ccc2c1C`, the melting point was in the range of 186 to 188 °C. The same measure for `CCS(=O)(=O)c1ccc(S(=O)(=O)CC)nc1`: 148 to 150 °C.

The molecule `O=C(Oc1ccccc1)N1CCN2C(=O)OC(Cc3ccccc3)(Cc3ccccc3)C2C1` (stereo not given) registered a melting point of 140 to 141 °C.

Regarding `CC(=O)Nc1cc([N+](=O)[O-])ccc1OCC(C)O` (stereo not given), the melting point is 123 °C. The molecule `S=[PH2]CCC(c1ccccc1)(c1ccccc1)c1ccccc1` registered a melting point of 88 °C. In the case of `Cn1ccc(C(=O)c2sc(NC(=O)c3ccncc3)nc2-c2ccco2)c1` it was 209 to 211 °C; in that of `OCC1OC(n2cnc3c(-n4cccc4)ncnc32)C(O)C1O` (stereo not given), 114 to 115 °C; in that of `COc1ccc(-n2c(=O)c(Cl)nc3cccnc32)cc1`, over 300 °C. With `CCOC(C)O[C@H]1C(=O)N[C@H]1C=Cc1ccccc1` (stereo not given in full), the melting point was in the range of 98 to 99 °C. Consider `CCC(O)c1cc([N+](=O)[O-])cc(Br)c1Cl` (stereo not given), for which the melting point lay in the range of 110 to 113 °C.

The molecule `Clc1ccc2nc(CN3CCN(c4ccccc4)CC3)[nH]c2c1` showed a melting point of 198 to 201 °C. In the case of `CNC(=O)NCCn1c(-c2ccc(N3CCOCC3)cc2)csc1=Nc1ccc(F)cc1`, the melting point lay within 191 to 194 °C. In the case of `O=C(Nc1cccc2c1C(=O)c1c-2n[nH]c1[C@H]1CC[C@H](C(=O)N2CCNCC2)CC1)NN1CCOCC1` it was 247 to 248 °C; in that of `CCOC(=O)C=Cc1cccc(I)c1`, 36.3 °C. In the case of `CN(C)CCCNCC(O)C(O)C(O)C(O)CO` (stereo not given) it was 107 to 108 °C; in that of `CC(=O)Oc1nc(-c2ccc(C(=O)O)cc2)sc1C`, 227 to 230 °C; in that of `CC(=O)Oc1c(Cc2ccccc2)cc(C(C)=O)c2ccccc12`, 118 to 120 °C.
